Source: patent US6294554A (priority 2000, dated 2001)

What follows are compounds tested on acetylcholine (ACh) (assay: In vivo microdialysis, acetylcholine (ACh) levels in striatum). Conditions: 10 mg/kg PO, rat striatum ACh.
Set-up: species or system male Sprague-Dawley Rats
Method: Microdialysis Methodology
Surgery: For these studies, male Sprague-Dawley Rats (250-350 g) were anesthetized with sodium pentobarbital (54 mg/kg, ip) and placed on a Kopf sterotaxic apparatus. The skull was exposed and drilled through to the dura at a point 0.2 mm anterior and 3.0 mm lateral to the bregma. At these coordinates, a guide cannula was positioned at the outer edge of the dura through the drilled opening, lowered perpendicularly to a depth of 2.5 mm, and permanently secured with dental cement to bone screws. Following the surgery, rats were given ampicillin (40 mg/kg, ip) and individually housed in modified cages. A recovery period of approximately 3 to 7 days was allowed before the microdialysis procedure was undertaken.
Microdialysis: All of the equipment and instrumentation used to conduct in vivo microdialysis was obtained from Bioanalytical Systems, Inc. (BAS). The microdialysis procedure involved the insertion through the guide cannula of a thin, needle-like perfusable probe (CMA/12, 3 mm×0.5 mm) to a depth of 3 mm in striatum beyond the end of the guide. The probe was connected beforehand with tubing to a microinjection pump (CMA/100). Rats were collared, tethered, and, following probe insertion, were placed in a large, clear, plexiglass bowl with litter material and access to food and water. The probe was perfused at 2, μl/min with Ringer's buffer (NaCl 147 mM; KCl 3.0 mM; CaCl2 1.2 mM; MgCl2 1.0 mM) containing 5.5 mM glucose, 0.2 mM L-ascorbate, and 1 μM neostigmine bromide at pH 7.4). To achieve stable baseline readings, microdialysis was allowed to proceed for 90 minutes prior to the collection of fractions. Fractions (20 μl) were obtained at 10 minute intervals over a 3 hour period using a refrigerated collector (CMA/1 70 or 200). Four to five baseline fractions were collected, following which the drug or combination of drugs to be tested was administered to the animal. Upon completion of the collection, each rat was autopsied to determine accuracy of probe placement.
Acetylcholine (ACh) analysis: The concentration of ACh in collected samples of microdialysate was determined using HPLC/electrochemical detection. Samples were auto-injected (Waters 712 Refrigerated Sample Processor) onto a polymeric analytical HPLC column (BAS, MF-6150) and eluted with 50 mM Na2 HPO4, pH 8.5. To prevent bacterial growth, Kathon CG reagent (0.005%) (BAS) was included in the mobile phase. Eluent from the analytical column, containing separated ACh and choline, was then immediately passed through an immobilized enzyme reactor cartridge (BAS, MF-6151) coupled to the column outlet. […] Integration and quantification of peaks were accomplished using "Maxima" chromatography software (Waters Corporation). […]
With `COc1ccc(S(=O)(=O)c2ccc(C3(C4CCN(C5CCN(C(=O)c6cccc(F)c6N)CC5)CC4)OCCO3)cc2)cc1` [Example 2F] the “Microdialysis Maximum % of baseline” value was 186%. For `COc1ccc(S(=O)(=O)c2ccc(C3(C4CCN(C5CCN(C(=O)c6cccc(C)c6N)CC5)CC4)OCCO3)cc2)cc1` [Example 2], the “Microdialysis Maximum % of baseline” value was 194%. For `Nc1cc(F)ccc1C(=O)N1CCC(N2CCC(C3(c4ccc(S(=O)(=O)c5cccc(Cl)c5)cc4)OCCO3)CC2)CC1` [Example 3E], the “Microdialysis Maximum % of baseline” value was 188%. In the case of `Nc1ccccc1C(=O)N1CCC(N2CCC(Cc3ccc(S(=O)(=O)c4cccc(Cl)c4)cc3)CC2)CC1` [Example 7A], the “Microdialysis Maximum % of baseline” value is reported as 150%.
